Test results published in patent publication US10981902B2 (Merck Sharp & Dohme Corp., priority 2017, dated 2021).

Biological target: T1, human M4 muscarinic acetylcholine receptor (Homo sapiens, UniProt P08173)
T1 construct: expressed in transfected cells; host or cells: CHO-K1
T1 sequence (P08173 1-479): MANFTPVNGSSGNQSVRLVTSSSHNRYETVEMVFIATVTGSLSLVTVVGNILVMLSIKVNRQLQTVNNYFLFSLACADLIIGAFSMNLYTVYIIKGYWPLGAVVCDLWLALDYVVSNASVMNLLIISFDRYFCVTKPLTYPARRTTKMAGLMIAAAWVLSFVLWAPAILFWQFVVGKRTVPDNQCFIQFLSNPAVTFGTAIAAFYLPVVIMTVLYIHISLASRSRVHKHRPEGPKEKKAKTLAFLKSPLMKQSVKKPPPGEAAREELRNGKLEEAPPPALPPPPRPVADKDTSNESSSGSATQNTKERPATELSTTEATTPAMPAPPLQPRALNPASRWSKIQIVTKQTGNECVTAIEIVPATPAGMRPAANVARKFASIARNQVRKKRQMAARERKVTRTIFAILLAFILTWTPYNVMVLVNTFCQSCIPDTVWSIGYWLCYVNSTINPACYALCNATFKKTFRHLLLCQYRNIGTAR
Test: human FLIPR-based M4 PAM assay (calcium mobilization, CHO-K1 cells with human M4 receptor and Gαqi5)
Type: cell-based
Conditions: inflection point (IP) of dose response curve, acetylcholine added at 20% of maximum response, read-out: M4 FLIPPR Hu IP
Outline: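 CHO-K1 cells stably expressing human M4 and Gαqi5, dye-loaded ~1 h at 37 °C, read on FLIPR Tetra. Test compound added at increasing concentrations 4 min before acetylcholine at an EC20 concentration, sometimes followed by an EC70 addition. Dose-response curves fit to a 4-parameter logistic; result is the curve inflection point.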

| Structure (SMILES) | EC50 |
| --- | --- |
| Cc1cn2ccc(-c3nc(C#N)ccc3-c3cnc(CC(C)C(F)(F)F)o3)cc2n1 (stereo not drawn) [Example 95, 6-(2-methylimidazo[1,2-a]pyridin-7-yl)-5-(2-(3,3,3-trifluoro-2-methylpropyl)oxazol-5-yl)picolinonitrile] | 194 nM |
| CC(C)(Cc1ncc(-c2ccc(C(F)F)nc2-c2ccn3ccnc3c2)o1)C(F)(F)F [Example 25, 5-(6-(difluoromethyl)-2-(imidazo[1,2-a]-pyridin-7-yl)pyridin-3-yl)-2-(3,3,3-trifluoro-2,2-dimethylpropyl)-oxazole] | 35 nM |
| CC(C)(C)Cc1ncc(-c2ccc(C#N)nc2-c2ccc3cccnc3c2)o1 [Example 11, 5-(2-neopentyl-oxazol-5-yl)-6-(quinolin-7-yl)-picolinonitrile] | 69 nM |
| Cc1nc2cc(-c3nc(C#N)ccc3-c3cnc(CC4CC(F)(F)C4)o3)ccn2n1 [Example 99, 5-(2-((3,3-difluorocyclobutyl)methyl)oxazol-5-yl)-6-(2-methyl-[1,2,4]triazolo[1,5-a]pyridin-7-yl) picolinonitrile] | 89 nM |
| Cc1ccc(-c2cnc(CC3CCCC3)o2)c(-c2ccc3c(c2)C(=O)N(C)C3)n1 [Example 46, 6-(3-(2-(cyclopentylmethyl)oxazol-5-yl)-6-methylpyridin-2-yl)-2-methylisoindolin-1-one] | 13 nM |
| Cc1cn2ccc(-c3nc(C#N)ccc3-c3cnc(CC(C)(C)F)o3)cc2n1 [Example 86, 5-(2-(2-fluoro-2-methylpropyl)oxazol-5-yl)-6-(2-methylimidazo [1,2-a]pyridin-7-yl) picolinonitrile] | 101 nM |
| N#Cc1ccc(-c2cnc(CC3(F)CCCC3)o2)c(-c2ccn3ccnc3c2)n1 [Example 76, 5-(2-((1-fluorocyclopentyl)methyl)oxazol-5-yl)-6-(imidazo [1,2-a]pyridin-7-yl) picolinonitrile] | 15 nM |
| Cc1nc2cc(-c3nc(C#N)ccc3-c3cnc(CC(C)(C)F)o3)ccc2n1C [Example 89, 6-(1,2-dimethyl-1H-benzo[d]imidazol-5-yl)-5-(2-(2-fluoro-2-methylpropyl)oxazol-5-yl)picolinonitrile] | 112 nM |
| CN1Cc2ccc(-c3ncccc3-c3cnc(CC4CCCC4)o3)cc2C1=O [Example 3, 6-(3-(2-(cyclo-pentylmethyl)-oxazol-5-yl)-pyridin-2-yl)-2-methylisoindolin-1-one] | 42 nM |
| N#Cc1ccc(-c2cnc(CC(F)C3CC3)o2)c(-c2ccc3cccnc3c2)n1 (single isomer, unassigned) [Example 70, 5-(2-(2-cyclopropyl-2-fluoroethyl)oxazol-5-yl)-6-(quinolin-7-yl)picolinonitrile (single compound)] | 60 nM |
| CN1Cc2ncc(-c3nc(C#N)ccc3-c3cnc(CC(C)(C)C)o3)cc2C1=O [Example 18, 6-(6-methyl-5-oxo-6,7-dihydro-5H-pyrrolo[3,4-b]-pyridin-3-yl)-5-(2-neopentyloxazol-5-yl)picolinonitrile] | 150 nM |
| Cc1cn2ccc(-c3nc(C#N)ccc3-c3cnc(CC(F)C4CC4)o3)cc2n1 (stereo not drawn) [Example 87, 5-(2-(2-cyclopropyl-2-fluoroethyl)oxazol-5-yl)-6-(2-methylimidazo [1,2-a]pyridin-7-yl) picolinonitrile] | 44 nM |
| CN1Cc2ccc(-c3nc(C#N)ccc3-c3cnc(CC4(C)CCCC4)o3)cc2C1=O [Example 6, 6-(2-methyl-3-oxo-isoindolin-5-yl)-5-(2-((1-methyl-cyclopentyl)methyl)-oxazol-5-yl)picolino-nitrile] | 14 nM |
| Cc1cn2ccc(-c3ncccc3-c3cnc(CC4(F)CCCC4)o3)cc2n1 [Example 91, 2-((1-fluorocyclopentyl)methyl)-5-(2-(2-methylimidazo [1,2-a]pyridin-7-yl)pyridin-3-yl)oxazole] | 76 nM |
| Cc1cn2ccc(-c3nc(C#N)ccc3-c3cnc(CCC(C)(C)F)o3)cc2n1 [Example 116, 5-(2-(3-fluoro-3-methylbutyl)oxazol-5-yl)-6-(2-methylimidazo [1,2-a]pyridin-7-yl)picolinonitrile] | 47 nM |
